Experimental data reported in patent US20140171357A1, “VANCOMYCIN DERIVATIVES” (Seachald Pharmaceuticals, Inc., priority 2011, published 2014).
≈ marks a conversion by molar mass, not a printed value.

Legend:
[1] = system: VanA vancomycin-resistant E. faecalis (11); assay: MIC broth microdilution, VanA E. faecalis; conditions: for MIC 50% / MIC 90%: E. faecalis, VanA (11)
[2] = system: Staphylococcus aureus (65 strains); assay: MIC broth microdilution, S. aureus all isolates; conditions: S. aureus (65), all resistance subsets
[3] = system: heterogeneous VISA (hVISA, 10); assay: MIC broth microdilution, hVISA
[4] = system: methicillin-resistant S. aureus (MRSA, 22); assay: MIC broth microdilution, MRSA; conditions: MRSA (22)
[5] = system: Staphylococcus epidermidis (43 strains); assay: MIC broth microdilution, S. epidermidis; conditions: S. epidermidis (43)
[6] = system: vancomycin-resistant S. aureus (VRSA, 6); assay: MIC broth microdilution, VRSA
S. pneumoniae (22) = assay: MIC broth microdilution, S. pneumoniae; conditions: for MIC 50% / MIC 90%: S. pneumoniae (22), MHB + lysed horse blood
[7] = system: VanB vancomycin-resistant E. faecium (10); assay: MIC broth microdilution, VanB E. faecium; conditions: E. faecium, VanB (10)
[8] = system: VanA vancomycin-resistant E. faecium (10); assay: MIC broth microdilution, VanA E. faecium; conditions: E. faecium, VanA (10)
[9] = system: vancomycin-susceptible E. faecium (21); assay: MIC broth microdilution, vancomycin-susceptible E. faecium; conditions: E. faecium, vancomycin-susceptible (21)
[10] = system: VanB vancomycin-resistant E. faecalis (12); assay: MIC broth microdilution, VanB E. faecalis; conditions: E. faecalis, VanB (12)
VanC enterococci (22) = assay: MIC broth microdilution, vanC-carrying enterococci; conditions: VanC enterococci (22)
[11] = system: vancomycin-susceptible E. faecalis (23); assay: MIC broth microdilution, vancomycin-susceptible E. faecalis; conditions: E. faecalis, vancomycin-susceptible (23)
[12] = system: β-hemolytic streptococci (23); assay: MIC broth microdilution, β-hemolytic streptococci; conditions: for fold more potent than teicoplanin and daptomycin / fold more potent than vancomycin: β-hemolytic streptococci; for MIC 50% / MIC 90%: β-hemolytic streptococci (23), MHB + lysed horse blood
[13] = system: methicillin-susceptible S. aureus (MSSA, 22); assay: MIC broth microdilution, MSSA; conditions: MSSA (22)
[14] = system: vancomycin-intermediate S. aureus (VISA, 5); assay: MIC broth microdilution, VISA
S. aureus ATCC 25923 = assay: Neutropenic murine thigh infection model; conditions: for AUCc-t (AUC difference between control and treated animals): 24 h time kill
[15] = 1 mg/kg single intraperitoneal dose
[16] = 4 mg/kg single intraperitoneal dose
[17] = 16 mg/kg single intraperitoneal dose

## CNC(CC(C)C)C(=O)NC1C(=O)NC(CC(N)=O)C(=O)NC2C(=O)NC3C(=O)NC(C(=O)NC(C(=O)NCCOCCOCCN(C)C)c4cc(O)cc(O)c4-c4cc3ccc4O)C(O)c3ccc(c(Cl)c3)Oc3cc2cc(c3OC2OC(CO)C(O)C(O)C2OC2CC(C)(NCc3ccc(-c4ccc(Cl)cc4)cc3)C(O)C(C)O2)Oc2ccc(cc2Cl)C1O (stereo not drawn) [Compound 10]
[1]
  MIC 50%: 4 µg/mL (≈ 2.21 µM)
  MIC 90%: 8 µg/mL (≈ 4.42 µM)
[2]
  MIC 50%: 0.06 µg/mL (≈ 0.0332 µM)
  MIC 90%: 0.25 µg/mL (≈ 0.138 µM)
[3]
  MIC 50%: 0.12 µg/mL (≈ 0.0664 µM)
  MIC 90%: 0.12 µg/mL (≈ 0.0664 µM)
[4]
  MIC 50%: 0.06 µg/mL (≈ 0.0332 µM)
  MIC 90%: 0.12 µg/mL (≈ 0.0664 µM)
[5]
  MIC 50%: 0.03 µg/mL (≈ 0.0166 µM)
  MIC 90%: 0.06 µg/mL (≈ 0.0332 µM)
[6]
  MIC 50%: 4 µg/mL (≈ 2.21 µM)
S. pneumoniae (22)
  MIC 50%: 0.03 µg/mL
  MIC 90%: 0.06 µg/mL
[7]
  MIC 50%: 0.06 µg/mL (≈ 0.0332 µM)
  MIC 90%: 0.06 µg/mL (≈ 0.0332 µM)
[8]
  MIC 50%: 1 µg/mL (≈ 0.553 µM)
  MIC 90%: 2 µg/mL (≈ 1.11 µM)
[9]
  MIC 50%: 0.06 µg/mL (≈ 0.0332 µM)
  MIC 90%: 0.06 µg/mL (≈ 0.0332 µM)
[10]
  MIC 50%: 0.12 µg/mL (≈ 0.0664 µM)
  MIC 90%: 0.25 µg/mL (≈ 0.138 µM)
VanC enterococci (22)
  MIC 50%: 0.12 µg/mL (≈ 0.0664 µM)
  MIC 90%: 0.25 µg/mL (≈ 0.138 µM)
[11]
  MIC 50%: 0.12 µg/mL (≈ 0.0664 µM)
  MIC 90%: 0.12 µg/mL (≈ 0.0664 µM)
[12]
  fold more potent than teicoplanin and daptomycin: two- to four
  fold more potent than vancomycin: four- to eight
  MIC 50%: 0.03 µg/mL
  MIC 90%: 0.12 µg/mL
[13]
  MIC 50%: 0.06 µg/mL (≈ 0.0332 µM)
  MIC 90%: 0.06 µg/mL (≈ 0.0332 µM)
[14]
  MIC 50%: 0.25 µg/mL (≈ 0.138 µM)
S. aureus ATCC 25923; [15]
  Max Kill (maximum decrease from initial infection level): 0.43 Log10 CFU/thigh
  AUCc-t (AUC difference between control and treated animals): 10.7 (Log10 CFU/thigh)/hr
S. aureus ATCC 25923; [16]
  Max Kill (maximum decrease from initial infection level): −0.06 Log10 CFU/thigh
  AUCc-t (AUC difference between control and treated animals): 22.4 (Log10 CFU/thigh)/hr
S. aureus ATCC 25923; [17]
  Max Kill (maximum decrease from initial infection level): −0.02 Log10 CFU/thigh
  AUCc-t (AUC difference between control and treated animals): 25.6 (Log10 CFU/thigh)/hr

## CCCCCCCCCCNCCNC1(C)CC(OC2C(Oc3c4cc5cc3Oc3ccc(cc3Cl)C(O)C3NC(=O)C(NC(=O)C5NC(=O)C(CC(N)=O)NC(=O)C(NC(=O)C(CC(C)C)NC)C(O)c5ccc(c(Cl)c5)O4)c4ccc(O)c(c4)-c4c(cc(O)c(CNCCOCCOCCN)c4O)C(C(=O)O)NC3=O)OC(CO)C(O)C2O)OC(C)C1O (stereo not drawn) [Compound 3]
[1]
  MIC 50%: 4 µg/mL (≈ 2.23 µM)
  MIC 90%: 8 µg/mL (≈ 4.46 µM)
[2]
  MIC 50%: 0.03 µg/mL (≈ 0.0167 µM)
  MIC 90%: 0.12 µg/mL (≈ 0.0669 µM)
[3]
  MIC 50%: 0.06 µg/mL (≈ 0.0335 µM)
  MIC 90%: 0.06 µg/mL (≈ 0.0335 µM)
[4]
  MIC 50%: 0.03 µg/mL (≈ 0.0167 µM)
  MIC 90%: 0.06 µg/mL (≈ 0.0335 µM)
[5]
  MIC 50%: 0.03 µg/mL (≈ 0.0167 µM)
  MIC 90%: 0.03 µg/mL (≈ 0.0167 µM)
[6]
  MIC 50%: 1 µg/mL (≈ 0.558 µM)
S. pneumoniae (22); S. pneumoniae
  fold more potent than linezolid: 32 fold
S. pneumoniae (22)
  MIC 50%: 0.015 µg/mL
  MIC 90%: 0.03 µg/mL
[7]
  MIC 50%: 0.015 µg/mL (≈ 0.00837 µM)
  MIC 90%: 0.015 µg/mL (≈ 0.00837 µM)
[8]
  MIC 50%: 2 µg/mL (≈ 1.12 µM)
  MIC 90%: 4 µg/mL (≈ 2.23 µM)
[9]
  MIC 50%: 0.015 µg/mL (≈ 0.00837 µM)
  MIC 90%: 0.03 µg/mL (≈ 0.0167 µM)
[10]
  MIC 50%: 0.06 µg/mL (≈ 0.0335 µM)
  MIC 90%: 0.12 µg/mL (≈ 0.0669 µM)
VanC enterococci (22)
  MIC 50%: 0.06 µg/mL (≈ 0.0335 µM)
  MIC 90%: 0.12 µg/mL (≈ 0.0669 µM)
[11]
  MIC 50%: 0.06 µg/mL (≈ 0.0335 µM)
  MIC 90%: 0.06 µg/mL (≈ 0.0335 µM)
[12]
  fold more potent than teicoplanin and daptomycin: two- to four
  fold more potent than vancomycin: four- to eight
  MIC 50%: 0.03 µg/mL
  MIC 90%: 0.12 µg/mL
[13]
  MIC 50%: 0.03 µg/mL (≈ 0.0167 µM)
  MIC 90%: 0.06 µg/mL (≈ 0.0335 µM)
[14]
  MIC 50%: 0.12 µg/mL (≈ 0.0669 µM)
S. aureus ATCC 25923; [15]
  Max Kill (maximum decrease from initial infection level): −0.2 Log10 CFU/thigh
  AUCc-t (AUC difference between control and treated animals): 28.4 (Log10 CFU/thigh)/hr
S. aureus ATCC 25923; [16]
  Max Kill (maximum decrease from initial infection level): −0.41 Log10 CFU/thigh
  AUCc-t (AUC difference between control and treated animals): 32.3 (Log10 CFU/thigh)/hr
S. aureus ATCC 25923; [17]
  Max Kill (maximum decrease from initial infection level): −1.08 Log10 CFU/thigh
  AUCc-t (AUC difference between control and treated animals): 52.9 (Log10 CFU/thigh)/hr
S. aureus ATCC 25923; 1, 4 and 16 mg/kg intraperitoneal
  organism reduction across doses: organism reduction over the entire dose range
S. aureus ATCC 25923; neutropenic soft tissue infection model
  in vivo efficacy against S. aureus (in words): bactericidal characteristics and prolonged in vivo activity

## CNC(CC(C)C)C(=O)NC1C(=O)NC(CC(N)=O)C(=O)NC2C(=O)NC3C(=O)NC(C(=O)NC(C(=O)NCCOCCOCCN)c4cc(O)cc(O)c4-c4cc3ccc4O)C(O)c3ccc(c(Cl)c3)Oc3cc2cc(c3OC2OC(CO)C(O)C(O)C2OC2CC(C)(NCc3ccc(OCc4ccc(Cl)c(Cl)c4)cc3)C(O)C(C)O2)Oc2ccc(cc2Cl)C1O (stereo not drawn) [Compound 27]
[1]
  MIC 50%: 2 µg/mL (≈ 1.08 µM)
  MIC 90%: 2 µg/mL (≈ 1.08 µM)
[1]; VanA vs wildtype E. faecalis
  fold higher MIC50/MIC90 against VanA-type E. faecalis compared with wildtype (susceptible) strains: 16 fold
[1]; VanA-type E. faecalis
  concentration inhibiting all strains: ≤ 2 µg/mL
[2]
  MIC 50%: 0.06 µg/mL (≈ 0.0325 µM)
  MIC 90%: 0.25 µg/mL (≈ 0.136 µM)
[3]
  MIC 50%: 0.06 µg/mL (≈ 0.0325 µM)
  MIC 90%: 0.06 µg/mL (≈ 0.0325 µM)
[4]
  MIC 50%: 0.06 µg/mL (≈ 0.0325 µM)
  MIC 90%: 0.06 µg/mL (≈ 0.0325 µM)
[5]
  MIC 50%: 0.03 µg/mL (≈ 0.0163 µM)
  MIC 90%: 0.03 µg/mL (≈ 0.0163 µM)
[6]
  MIC 50%: 2 µg/mL (≈ 1.08 µM)
S. pneumoniae (22)
  MIC 50%: 0.03 µg/mL
  MIC 90%: 0.06 µg/mL
[7]
  MIC 50%: 0.03 µg/mL (≈ 0.0163 µM)
  MIC 90%: 0.03 µg/mL (≈ 0.0163 µM)
[8]
  MIC 50%: 0.5 µg/mL (≈ 0.271 µM)
  MIC 90%: 1 µg/mL (≈ 0.542 µM)
[9]
  MIC 50%: 0.03 µg/mL (≈ 0.0163 µM)
  MIC 90%: 0.06 µg/mL (≈ 0.0325 µM)
[10]
  MIC 50%: 0.12 µg/mL (≈ 0.0651 µM)
  MIC 90%: 0.12 µg/mL (≈ 0.0651 µM)
VanC enterococci (22)
  MIC 50%: 0.06 µg/mL (≈ 0.0325 µM)
  MIC 90%: 0.25 µg/mL (≈ 0.136 µM)
[11]
  MIC 50%: 0.12 µg/mL (≈ 0.0651 µM)
  MIC 90%: 0.12 µg/mL (≈ 0.0651 µM)
[12]
  MIC 50%: 0.06 µg/mL
  MIC 90%: 0.12 µg/mL
[13]
  MIC 50%: 0.06 µg/mL (≈ 0.0325 µM)
  MIC 90%: 0.06 µg/mL (≈ 0.0325 µM)
[14]
  MIC 50%: 0.12 µg/mL (≈ 0.0651 µM)
S. aureus ATCC 25923; [15]
  Max Kill (maximum decrease from initial infection level): 0.45 Log10 CFU/thigh
  AUCc-t (AUC difference between control and treated animals): 19.8 (Log10 CFU/thigh)/hr
S. aureus ATCC 25923; [16]
  Max Kill (maximum decrease from initial infection level): −0.008 Log10 CFU/thigh
  AUCc-t (AUC difference between control and treated animals): 18.8 (Log10 CFU/thigh)/hr
S. aureus ATCC 25923; [17]
  Max Kill (maximum decrease from initial infection level): −0.35 Log10 CFU/thigh
  AUCc-t (AUC difference between control and treated animals): 36.9 (Log10 CFU/thigh)/hr
